Where two headings read alike, the source gives them in different places.
Key:
[1] = molecular target: T1, OATP1B3 (Homo sapiens, UniProt Q9NPD5); assay: Inhibitor of OATP1B3, probe substrate uptake; details: for potency estimated from few doses: read-out: Estimated IC50, OATP1B3
[2] = tested on: Caco-2 cells
[3] = molecular target: P-gp (Homo sapiens, UniProt P08183); assay: Substrate of P-gp (Caco-2 cells, selective inhibitors)
[4] = tested on: human hepatocytes; assay: Cytotoxicity of six test articles in hepatocyte cultures (MTS); details: Donor 1, 72±2 hours
[5] = molecular target: MATE2K (Homo sapiens, UniProt Q86VL8); assay: Inhibitor of MATE2-K, probe substrate uptake; details: for potency estimated from few doses: read-out: Estimated IC50, MATE2-K
Chain of MATE2K (Q86VL8 1-566 isoform Q86VL8-3): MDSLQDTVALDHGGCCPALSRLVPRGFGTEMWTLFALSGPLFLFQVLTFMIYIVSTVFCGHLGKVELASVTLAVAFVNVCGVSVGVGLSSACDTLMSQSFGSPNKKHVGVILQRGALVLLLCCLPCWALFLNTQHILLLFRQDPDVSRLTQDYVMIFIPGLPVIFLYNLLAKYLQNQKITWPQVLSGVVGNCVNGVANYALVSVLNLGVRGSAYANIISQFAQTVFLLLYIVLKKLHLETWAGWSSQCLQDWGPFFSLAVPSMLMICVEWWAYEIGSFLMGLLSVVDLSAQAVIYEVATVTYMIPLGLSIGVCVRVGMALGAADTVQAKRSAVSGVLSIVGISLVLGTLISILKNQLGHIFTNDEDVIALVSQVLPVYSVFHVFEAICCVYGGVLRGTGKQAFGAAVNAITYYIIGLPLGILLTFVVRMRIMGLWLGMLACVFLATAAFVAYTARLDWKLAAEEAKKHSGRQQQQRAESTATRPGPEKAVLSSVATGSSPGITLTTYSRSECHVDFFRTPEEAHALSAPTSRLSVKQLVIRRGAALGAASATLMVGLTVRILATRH

[6] = molecular target: T1, OATP1B3; assay: Substrate of OATP1B3, uptake in HEK293 cells
Text: (§1) Vector-transfected HEK cells were used as a control.

[7] = molecular target: T2, OAT3 (Homo sapiens, UniProt Q8TCC7); assay: Inhibitor of OAT3, probe substrate uptake; details: for potency estimated from few doses: read-out: Estimated IC50, OAT3
T2 sequence (Q8TCC7 1-542): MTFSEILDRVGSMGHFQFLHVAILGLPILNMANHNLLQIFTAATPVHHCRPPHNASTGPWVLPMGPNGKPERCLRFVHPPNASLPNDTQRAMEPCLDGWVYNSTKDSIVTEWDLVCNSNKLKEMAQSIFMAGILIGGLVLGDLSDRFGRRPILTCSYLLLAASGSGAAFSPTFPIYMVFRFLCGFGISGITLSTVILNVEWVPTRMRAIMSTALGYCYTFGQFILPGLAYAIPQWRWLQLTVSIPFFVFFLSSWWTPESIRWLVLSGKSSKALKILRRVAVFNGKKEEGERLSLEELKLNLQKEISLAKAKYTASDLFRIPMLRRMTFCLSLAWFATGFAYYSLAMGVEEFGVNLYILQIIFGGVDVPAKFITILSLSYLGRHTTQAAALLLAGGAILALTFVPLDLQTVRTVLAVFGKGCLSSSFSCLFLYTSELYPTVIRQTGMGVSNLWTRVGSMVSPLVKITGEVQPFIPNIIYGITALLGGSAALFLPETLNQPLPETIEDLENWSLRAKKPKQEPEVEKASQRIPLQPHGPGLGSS

[8] = molecular target: BSEP (Homo sapiens, UniProt O95342); assay: Substrate of BSEP; details: test article 1 and 10 μM
Chain of BSEP (O95342 whole entry): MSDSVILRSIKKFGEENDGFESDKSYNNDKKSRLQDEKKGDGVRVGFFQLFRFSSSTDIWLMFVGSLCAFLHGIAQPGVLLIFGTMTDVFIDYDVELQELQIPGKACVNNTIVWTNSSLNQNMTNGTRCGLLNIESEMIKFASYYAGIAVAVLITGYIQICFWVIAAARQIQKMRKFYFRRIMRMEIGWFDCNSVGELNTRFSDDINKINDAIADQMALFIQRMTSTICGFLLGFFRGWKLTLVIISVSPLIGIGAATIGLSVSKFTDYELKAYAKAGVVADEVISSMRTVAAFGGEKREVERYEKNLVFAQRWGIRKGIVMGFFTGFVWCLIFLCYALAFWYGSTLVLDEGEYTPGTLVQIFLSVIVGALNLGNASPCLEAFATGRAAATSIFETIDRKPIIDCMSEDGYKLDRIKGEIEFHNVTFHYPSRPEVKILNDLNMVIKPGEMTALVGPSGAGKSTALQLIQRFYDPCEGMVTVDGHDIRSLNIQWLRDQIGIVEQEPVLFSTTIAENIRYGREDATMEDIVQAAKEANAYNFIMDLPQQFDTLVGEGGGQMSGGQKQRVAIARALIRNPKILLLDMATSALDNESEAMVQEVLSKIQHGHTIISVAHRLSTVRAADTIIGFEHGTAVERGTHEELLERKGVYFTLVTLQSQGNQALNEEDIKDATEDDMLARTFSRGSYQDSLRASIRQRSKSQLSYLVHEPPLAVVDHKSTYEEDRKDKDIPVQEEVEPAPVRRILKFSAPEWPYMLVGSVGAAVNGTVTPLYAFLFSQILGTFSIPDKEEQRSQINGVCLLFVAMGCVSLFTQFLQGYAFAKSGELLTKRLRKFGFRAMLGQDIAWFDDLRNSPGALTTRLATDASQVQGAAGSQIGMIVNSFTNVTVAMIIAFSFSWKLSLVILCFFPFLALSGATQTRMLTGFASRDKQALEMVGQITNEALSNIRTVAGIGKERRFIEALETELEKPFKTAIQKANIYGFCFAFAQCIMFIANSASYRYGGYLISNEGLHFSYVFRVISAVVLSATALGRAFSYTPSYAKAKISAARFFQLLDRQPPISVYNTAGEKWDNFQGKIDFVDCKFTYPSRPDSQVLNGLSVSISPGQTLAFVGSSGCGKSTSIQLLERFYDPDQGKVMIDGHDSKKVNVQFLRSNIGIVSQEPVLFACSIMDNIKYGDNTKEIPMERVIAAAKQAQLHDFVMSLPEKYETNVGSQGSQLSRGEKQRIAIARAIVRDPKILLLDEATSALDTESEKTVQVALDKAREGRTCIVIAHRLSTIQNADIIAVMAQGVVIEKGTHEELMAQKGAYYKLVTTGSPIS

[9] = molecular target: T3, OCT1 (Homo sapiens, UniProt O15245); assay: Inhibitor of OCT1, probe substrate uptake; details: two concentrations per test article
T3 sequence (O15245 1-554): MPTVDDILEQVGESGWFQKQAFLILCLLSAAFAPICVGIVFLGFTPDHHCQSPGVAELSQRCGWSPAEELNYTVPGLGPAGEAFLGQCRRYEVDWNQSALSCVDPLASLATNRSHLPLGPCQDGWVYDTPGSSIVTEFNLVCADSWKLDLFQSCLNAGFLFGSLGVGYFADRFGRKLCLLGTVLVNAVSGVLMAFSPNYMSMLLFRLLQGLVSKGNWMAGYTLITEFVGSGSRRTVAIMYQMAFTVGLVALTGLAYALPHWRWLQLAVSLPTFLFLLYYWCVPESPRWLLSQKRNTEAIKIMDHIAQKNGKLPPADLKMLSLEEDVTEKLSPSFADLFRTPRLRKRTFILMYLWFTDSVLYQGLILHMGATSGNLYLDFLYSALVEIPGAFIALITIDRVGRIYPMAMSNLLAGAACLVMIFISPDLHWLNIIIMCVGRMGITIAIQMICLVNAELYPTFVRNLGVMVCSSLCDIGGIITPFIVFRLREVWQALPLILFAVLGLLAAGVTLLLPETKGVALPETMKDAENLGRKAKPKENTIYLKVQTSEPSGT

[10] = molecular target: T4, OAT1 (Homo sapiens, UniProt Q4U2R8); assay: Substrate of OAT1, uptake in HEK293 cells
T4 sequence (Q4U2R8 1-563): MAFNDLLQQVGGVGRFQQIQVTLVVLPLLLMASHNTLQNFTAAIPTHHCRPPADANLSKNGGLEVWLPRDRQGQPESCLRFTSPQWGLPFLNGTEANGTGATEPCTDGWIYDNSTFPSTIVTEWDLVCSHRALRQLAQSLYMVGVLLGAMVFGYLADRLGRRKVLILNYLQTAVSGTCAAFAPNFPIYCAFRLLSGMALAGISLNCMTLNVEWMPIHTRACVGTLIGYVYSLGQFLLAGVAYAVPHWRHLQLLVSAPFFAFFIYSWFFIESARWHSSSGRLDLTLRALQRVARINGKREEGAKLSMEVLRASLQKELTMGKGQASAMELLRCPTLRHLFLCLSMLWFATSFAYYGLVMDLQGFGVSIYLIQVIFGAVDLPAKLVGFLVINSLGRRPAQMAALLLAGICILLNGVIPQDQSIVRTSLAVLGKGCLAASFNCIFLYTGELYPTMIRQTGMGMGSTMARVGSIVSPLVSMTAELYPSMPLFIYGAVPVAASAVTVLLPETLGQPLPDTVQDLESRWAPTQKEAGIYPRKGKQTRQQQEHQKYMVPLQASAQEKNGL
Text: as §1

[11] = molecular target: OATP1B1 (Homo sapiens, UniProt Q9Y6L6); assay: Inhibitor of OATP1B1, probe substrate uptake; details: for potency estimated from few doses: read-out: Estimated IC50, OATP1B1
Chain of OATP1B1 (Q9Y6L6 whole entry): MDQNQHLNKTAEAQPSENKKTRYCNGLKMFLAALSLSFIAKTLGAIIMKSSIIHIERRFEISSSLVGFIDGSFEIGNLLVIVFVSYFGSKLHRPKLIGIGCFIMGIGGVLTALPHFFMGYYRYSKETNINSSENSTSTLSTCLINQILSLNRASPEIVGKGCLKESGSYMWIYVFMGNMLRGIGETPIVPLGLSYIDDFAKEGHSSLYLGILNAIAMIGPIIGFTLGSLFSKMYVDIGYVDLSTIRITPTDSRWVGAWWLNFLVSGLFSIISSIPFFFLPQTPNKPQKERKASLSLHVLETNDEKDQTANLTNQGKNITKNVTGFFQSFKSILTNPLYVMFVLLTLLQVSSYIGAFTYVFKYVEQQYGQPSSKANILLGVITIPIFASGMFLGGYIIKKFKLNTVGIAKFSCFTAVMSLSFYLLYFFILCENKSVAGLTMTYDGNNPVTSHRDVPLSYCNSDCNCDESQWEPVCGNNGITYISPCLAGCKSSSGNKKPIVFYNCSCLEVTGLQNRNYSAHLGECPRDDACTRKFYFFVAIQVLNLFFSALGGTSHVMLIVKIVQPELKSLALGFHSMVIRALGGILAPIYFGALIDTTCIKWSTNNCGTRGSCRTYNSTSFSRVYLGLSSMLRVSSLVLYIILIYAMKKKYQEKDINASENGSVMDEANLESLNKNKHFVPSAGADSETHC

[12] = molecular target: T2, OAT3; assay: Substrate of OAT3, uptake in HEK293 cells
Text: as §1

[13] = estimated from two concentrations
[14] = two concentrations per test article

T1 sequence (Q9NPD5 whole entry): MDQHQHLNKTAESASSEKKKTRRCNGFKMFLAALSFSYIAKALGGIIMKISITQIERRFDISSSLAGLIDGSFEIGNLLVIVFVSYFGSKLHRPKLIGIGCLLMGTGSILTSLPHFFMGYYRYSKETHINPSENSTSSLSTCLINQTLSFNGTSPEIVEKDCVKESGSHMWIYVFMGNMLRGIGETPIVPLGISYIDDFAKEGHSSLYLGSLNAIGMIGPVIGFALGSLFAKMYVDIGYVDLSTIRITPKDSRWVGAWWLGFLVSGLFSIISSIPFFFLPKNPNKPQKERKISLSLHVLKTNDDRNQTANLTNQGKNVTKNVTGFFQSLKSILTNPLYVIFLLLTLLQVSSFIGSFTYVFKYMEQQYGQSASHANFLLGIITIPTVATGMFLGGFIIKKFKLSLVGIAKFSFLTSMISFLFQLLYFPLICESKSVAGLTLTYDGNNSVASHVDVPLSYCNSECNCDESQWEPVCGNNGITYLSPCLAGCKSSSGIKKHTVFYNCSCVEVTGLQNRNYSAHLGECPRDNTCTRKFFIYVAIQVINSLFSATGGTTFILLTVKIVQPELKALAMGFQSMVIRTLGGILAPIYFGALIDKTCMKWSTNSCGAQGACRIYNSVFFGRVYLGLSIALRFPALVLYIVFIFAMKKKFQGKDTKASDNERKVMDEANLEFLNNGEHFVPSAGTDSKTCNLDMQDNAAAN
Chain of P-gp (P08183 whole entry): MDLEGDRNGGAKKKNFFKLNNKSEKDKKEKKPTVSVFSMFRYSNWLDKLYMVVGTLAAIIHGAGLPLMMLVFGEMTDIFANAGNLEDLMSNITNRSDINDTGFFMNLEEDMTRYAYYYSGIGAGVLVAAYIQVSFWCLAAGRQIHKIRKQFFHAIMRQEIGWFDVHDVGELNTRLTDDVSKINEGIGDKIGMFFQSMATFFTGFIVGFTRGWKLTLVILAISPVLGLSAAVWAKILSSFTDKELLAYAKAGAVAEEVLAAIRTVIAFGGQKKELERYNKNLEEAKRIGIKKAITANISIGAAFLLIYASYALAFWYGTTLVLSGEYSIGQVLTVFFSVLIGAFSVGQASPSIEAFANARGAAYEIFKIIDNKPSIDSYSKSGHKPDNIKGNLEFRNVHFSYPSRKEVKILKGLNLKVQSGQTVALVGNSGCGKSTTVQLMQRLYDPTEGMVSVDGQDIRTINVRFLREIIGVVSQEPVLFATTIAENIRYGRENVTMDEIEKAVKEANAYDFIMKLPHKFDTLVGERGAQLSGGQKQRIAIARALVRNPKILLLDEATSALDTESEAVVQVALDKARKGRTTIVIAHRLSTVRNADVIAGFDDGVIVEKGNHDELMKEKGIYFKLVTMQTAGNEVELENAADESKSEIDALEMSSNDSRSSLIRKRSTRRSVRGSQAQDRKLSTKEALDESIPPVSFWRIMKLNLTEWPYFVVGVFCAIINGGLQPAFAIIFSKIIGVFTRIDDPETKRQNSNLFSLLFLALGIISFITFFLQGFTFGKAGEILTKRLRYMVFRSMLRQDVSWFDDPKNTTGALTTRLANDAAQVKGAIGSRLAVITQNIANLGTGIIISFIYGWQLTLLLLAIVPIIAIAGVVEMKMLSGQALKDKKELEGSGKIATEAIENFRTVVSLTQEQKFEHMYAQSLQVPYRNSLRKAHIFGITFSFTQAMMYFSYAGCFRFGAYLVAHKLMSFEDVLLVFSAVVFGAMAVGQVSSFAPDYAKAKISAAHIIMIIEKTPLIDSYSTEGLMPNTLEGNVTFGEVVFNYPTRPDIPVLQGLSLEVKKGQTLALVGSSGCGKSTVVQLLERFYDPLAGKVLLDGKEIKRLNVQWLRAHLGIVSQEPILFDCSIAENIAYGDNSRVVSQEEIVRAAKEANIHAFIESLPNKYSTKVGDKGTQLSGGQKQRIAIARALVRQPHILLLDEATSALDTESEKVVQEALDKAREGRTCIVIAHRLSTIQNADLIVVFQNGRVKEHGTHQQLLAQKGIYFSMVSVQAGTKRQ

## tauroursodeoxycholic acid [TUDCA]
[1]; 50 μM
  Uptake activity remaining, OATP1B3: roughly 18%
[1]; [13]
  potency estimated from few doses: < 50 µM
[1]; estimated from two doses
  potency estimated from few doses: < 50 µM
[1]; [14]
  Inhibition of OATP1B3: inhibited
  Inhibitor of OATP1B3: Yes
[2]; 1 μM
  Papp basolateral to apical: 8.17 ×10⁻⁶ cm/s
[2]; 10 μM
  Papp apical to basolateral: 2.43 ×10⁻⁶ cm/s
  Papp basolateral to apical: 3.6 ×10⁻⁶ cm/s
[2]; 1 and 10 μM (tauroursodeoxycholic acid: 10 μM)
  Permeability in Caco-2 cell assay: moderate in both directions
[3]; Caco-2, 1 and 10 μM
  Substrate of P-gp: as a substrate
[3]; test article 1 and 10 μM, Caco-2 cells
  Substrate of P-gp: Yes
[4]
  Concentrations at which not hepatotoxic: 550 µM
[5]; concentration not stated (5 and 50 μM tested)
  Uptake activity remaining, MATE2-K: 44.3%
[5]; [13]
  potency estimated from few doses: < 50 µM
[5]; estimated from two doses
  potency estimated from few doses: < 50 µM
[5]; [14]
  Inhibition of MATE2-K: inhibited
  Inhibitor of MATE2-K: Yes
[6]; 1 and 10 μM
  Uptake by OATP1B3: 5.90 pmol/minute/mg protein
[6]; test article 1 and 10 μM
  Substrate of OATP1B3: Yes
[7]; [13]
  potency estimated from few doses: > 50 µM
[7]; estimated from two doses
  potency estimated from few doses: > 50 µM
[7]; [14]
  Inhibition of OAT3: inhibited
  Inhibitor of OAT3: Yes
[8]
  Substrate of BSEP: Yes
[9]
  Inhibition of OCT1: did not inhibit
  Inhibitor of OCT1: No
[10]; 1 and 10 μM
  Substrate of OAT1: not a substrate
[10]; test article 1 and 10 μM
  Substrate of OAT1: No
[11]; 50 μM
  Uptake activity remaining, OATP1B1: roughly 18%
[11]; [13]
  potency estimated from few doses: < 50 µM
[11]; estimated from two doses
  potency estimated from few doses: < 50 µM
[11]; [14]
  Inhibition of OATP1B1: inhibited
  Inhibitor of OATP1B1: Yes
[12]; 1 and 10 μM
  Uptake by OAT3: ≥ 9.27 pmol/minute/mg protein
[12]; test article 1 and 10 μM
  Substrate of OAT3: Yes

From US20240139211A1, “METHODS AND COMPOSITIONS FOR TREATING AMYOTROPHIC LATERAL SCLEROSIS” (Amylyx Pharmaceuticals, Inc., priority 2022, published 2024)
